Data reported in the supplement of paper PMC10307832.

Key:
Assay in all cases: relative viability (nuclei count vs DMSO), 5 days (fraction); higher = more cells survive
[1] = system: HCC-15
Summary of the method: (§1)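 Lung cancer cell lines were seeded in 1536-well plates and dosed by pin tool the next day, with either a single drug or a fixed anchor-drug dose combined with five library-drug doses (not always all listed) spaced in √10 steps. Five days later, one step fixed the cells and stained their nuclei (final 0.05% Triton X-100, 1% formaldehyde, 1 ug/ml Hoechst), and nuclei were counted on 4× images. Relative viability is the nuclei count in treated wells divided by the count in vehicle wells, and each value is the median of duplicate plates.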

[2] = system: NCI-H1993
Summary of the method: as §1

[3] = system: NCI-H358
Summary of the method: as §1

[4] = system: ChaGo-K-1
Summary of the method: as §1

[5] = system: HARA
Summary of the method: as §1

[6] = system: NCI-H1793
Summary of the method: as §1

[7] = system: COR-L23
Summary of the method: as §1

[8] = system: NCI-H2228
Summary of the method: as §1

[9] = system: HCC-78
Summary of the method: as §1

[10] = system: NCI-H2405
Summary of the method: as §1

[11] = system: SK-LU-1
Summary of the method: as §1

[12] = system: NCI-H2126
Summary of the method: as §1

[13] = system: NCI-H1395
Summary of the method: as §1

[14] = system: LC-2-ad
Summary of the method: as §1

[15] = system: NCI-H1944
Summary of the method: as §1

[16] = system: HCC-366
Summary of the method: as §1

[17] = system: HOP-62
Summary of the method: as §1

[18] = system: EMC-BAC-2
Summary of the method: as §1

[19] = system: NCI-H23
Summary of the method: as §1

[20] = system: NCI-H838
Summary of the method: as §1

[21] = system: NCI-H2023
Summary of the method: as §1

## O=c1cc(-c2cccc3c2Sc2ccccc2S3)oc(N2CCOCC2)c1 + CC(=O)Nc1cccc(-n2c(=O)n(C3CC3)c(=O)c3c(Nc4ccc(I)cc4F)n(C)c(=O)c(C)c32)c1 [Trametinib] (partner 0.02 µM)
[1]; first compound 0.08 µM
  relative viability: 0.362
[1]; first compound 0.253 µM
  relative viability: 0.454
[1]; first compound 0.8 µM
  relative viability: 0.369
[1]; first compound 2.53 µM
  relative viability: 0.363
[1]; first compound 8 µM
  relative viability: 0.38
[2]; first compound 0.08 µM
  relative viability: 0.462
[2]; first compound 0.253 µM
  relative viability: 0.64
[2]; first compound 0.8 µM
  relative viability: 0.46
[2]; first compound 2.53 µM
  relative viability: 0.467
[2]; first compound 8 µM
  relative viability: 0.544
[3]; first compound 0.08 µM
  relative viability: 0.123
[3]; first compound 0.253 µM
  relative viability: 0.134
[3]; first compound 0.8 µM
  relative viability: 0.123
[3]; first compound 2.53 µM
  relative viability: 0.111
[3]; first compound 8 µM
  relative viability: 0.152
[4]; first compound 0.08 µM
  relative viability: 0.862
[4]; first compound 0.253 µM
  relative viability: 0.935
[4]; first compound 0.8 µM
  relative viability: 0.894
[4]; first compound 2.53 µM
  relative viability: 0.908
[4]; first compound 8 µM
  relative viability: 0.955
[5]; first compound 0.08 µM
  relative viability: 0.786
[5]; first compound 0.253 µM
  relative viability: 0.615
[5]; first compound 0.8 µM
  relative viability: 0.537
[5]; first compound 2.53 µM
  relative viability: 0.668
[5]; first compound 8 µM
  relative viability: 0.581
[6]; first compound 0.08 µM
  relative viability: 0.262
[6]; first compound 0.253 µM
  relative viability: 0.458
[6]; first compound 0.8 µM
  relative viability: 0.448
[6]; first compound 2.53 µM
  relative viability: 0.376
[6]; first compound 8 µM
  relative viability: 0.346
[7]; first compound 0.08 µM
  relative viability: 0.593
[7]; first compound 0.253 µM
  relative viability: 0.689
[7]; first compound 0.8 µM
  relative viability: 0.51
[7]; first compound 2.53 µM
  relative viability: 0.592
[7]; first compound 8 µM
  relative viability: 0.689
[8]; first compound 0.08 µM
  relative viability: 0.554
[8]; first compound 0.253 µM
  relative viability: 0.72
[8]; first compound 0.8 µM
  relative viability: 0.582
[8]; first compound 2.53 µM
  relative viability: 0.416
[8]; first compound 8 µM
  relative viability: 0.447
[9]; first compound 0.08 µM
  relative viability: 0.712
[9]; first compound 0.253 µM
  relative viability: 1.03
[9]; first compound 0.8 µM
  relative viability: 0.677
[9]; first compound 2.53 µM
  relative viability: 0.786
[9]; first compound 8 µM
  relative viability: 0.544
[10]; first compound 0.08 µM
  relative viability: 0.589
[10]; first compound 0.253 µM
  relative viability: 0.673
[10]; first compound 0.8 µM
  relative viability: 0.599
[10]; first compound 2.53 µM
  relative viability: 0.534
[10]; first compound 8 µM
  relative viability: 0.577
[11]; first compound 0.08 µM
  relative viability: 0.422
[11]; first compound 0.253 µM
  relative viability: 0.512
[11]; first compound 0.8 µM
  relative viability: 0.582
[11]; first compound 2.53 µM
  relative viability: 0.414
[11]; first compound 8 µM
  relative viability: 0.415
[12]; first compound 0.08 µM
  relative viability: 0.583
[12]; first compound 0.253 µM
  relative viability: 0.583
[12]; first compound 0.8 µM
  relative viability: 0.526
[12]; first compound 2.53 µM
  relative viability: 0.508
[12]; first compound 8 µM
  relative viability: 0.474
[13]; first compound 0.08 µM
  relative viability: 0.883
[13]; first compound 0.253 µM
  relative viability: 1.05
[13]; first compound 0.8 µM
  relative viability: 1.14
[13]; first compound 2.53 µM
  relative viability: 0.964
[13]; first compound 8 µM
  relative viability: 1.06
[14]; first compound 0.08 µM
  relative viability: 0.882
[14]; first compound 0.253 µM
  relative viability: 0.967
[14]; first compound 0.8 µM
  relative viability: 0.93
[14]; first compound 2.53 µM
  relative viability: 0.858
[14]; first compound 8 µM
  relative viability: 0.858
[15]; first compound 0.08 µM
  relative viability: 0.365
[15]; first compound 0.253 µM
  relative viability: 0.414
[15]; first compound 0.8 µM
  relative viability: 0.396
[15]; first compound 2.53 µM
  relative viability: 0.428
[15]; first compound 8 µM
  relative viability: 0.428
[16]; first compound 0.08 µM
  relative viability: 0.31
[16]; first compound 0.253 µM
  relative viability: 0.474
[16]; first compound 0.8 µM
  relative viability: 0.339
[16]; first compound 2.53 µM
  relative viability: 0.33
[16]; first compound 8 µM
  relative viability: 0.284
[17]; first compound 0.08 µM
  relative viability: 0.401
[17]; first compound 0.253 µM
  relative viability: 0.394
[17]; first compound 0.8 µM
  relative viability: 0.348
[17]; first compound 2.53 µM
  relative viability: 0.319
[17]; first compound 8 µM
  relative viability: 0.321
[18]; first compound 0.08 µM
  relative viability: 0.804
[18]; first compound 0.253 µM
  relative viability: 1.04
[18]; first compound 0.8 µM
  relative viability: 0.842
[18]; first compound 2.53 µM
  relative viability: 0.908
[18]; first compound 8 µM
  relative viability: 0.895
[19]; first compound 0.08 µM
  relative viability: 0.334
[19]; first compound 0.253 µM
  relative viability: 0.418
[19]; first compound 0.8 µM
  relative viability: 0.349
[19]; first compound 2.53 µM
  relative viability: 0.313
[19]; first compound 8 µM
  relative viability: 0.317
[20]; first compound 0.08 µM
  relative viability: 0.462
[20]; first compound 0.253 µM
  relative viability: 0.673
[20]; first compound 0.8 µM
  relative viability: 0.49
[20]; first compound 2.53 µM
  relative viability: 0.502
[20]; first compound 8 µM
  relative viability: 0.47
[21]; first compound 0.08 µM
  relative viability: 0.564
[21]; first compound 0.253 µM
  relative viability: 0.647
[21]; first compound 0.8 µM
  relative viability: 0.6
[21]; first compound 2.53 µM
  relative viability: 0.534
[21]; first compound 8 µM
  relative viability: 0.426
